# Entries after “also recorded” stand apart in the source; their conditions may differ.
# Columns and labels:
# Type in all cases: biochemical
# [1] = biological target: T1, pre-formed human amylin amyloid fibrils (Homo sapiens, UniProt P10997); test: Disaggregation of pre-formed amylin amyloid fibrils (thioflavin-T and TEM); details: 20-fold excess added after amyloid formation was complete, up to 48 hours
# T1 construct: Mature, fully processed, Amylin is 37 residues in length, contains a disulfide bond between residues 2 and 7; made in house; host or cells: chemical solid-phase peptide synthesis (Fmoc), no expression host
# T1 sequence (P10997 34-70 limits assumed): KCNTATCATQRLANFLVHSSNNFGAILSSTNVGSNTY
# Description: Solutions were prepared by adding pH 7.4, 20 mM Tris buffer and thioflavin-T to lyophilized dry peptides for a final peptide concentration of 16 M. For the studies of Aspirin and Ketoprofen, 0.25% DMSO was present in the solution. Measurements were made at 25° C. using a Beckman Coulter DTX880 plate reader without stirring. An excitation filter of 430 nm and an emission filter of 485 nm were used.
# [2] = biological target: T2, human amylin (Homo sapiens, UniProt P10997); test: Right angle light scattering assay (RALS) without thioflavin-T; details: 20-fold excess of aspirin (320 μM), amylin 16 μM, no thioflavin-T
# T2 construct: Mature, fully processed, Amylin is 37 residues in length, contains a disulfide bond between residues 2 and 7; made in house; host or cells: chemical solid-phase peptide synthesis (Fmoc), no expression host
# T2 sequence (P10997 34-70 limits assumed): T1 sequence (P10997 34-70 limits assumed)
# Description: Solutions were prepared by adding pH 7.4, 20 mM Tris buffer without thioflavin-T to lyophilized dry peptides for a final peptide concentration of 16 […] used an excitation and emission wavelength of 500 nm.
# [3] = biological target: T3, human IAPP (amylin) (Homo sapiens, UniProt P10997); test: Transmission electron microscopy of amyloid fibrils; details: 20-fold excess of NSAID over human IAPP, end of kinetic experiment
# T3 construct: Mature, fully processed, Amylin is 37 residues in length, contains a disulfide bond between residues 2 and 7; made in house; host or cells: chemical solid-phase peptide synthesis (Fmoc), no expression host
# T3 sequence (P10997 34-70 limits assumed): T1 sequence (P10997 34-70 limits assumed)
# Description: TEM was performed at the Life Science Microscopy Center at Stony Brook University. Aliquots were removed from the same solutions that were used for the fluorescence measurements. 5 μL of peptide solution was placed on carbon-coated Formvar 300 mesh copper grid for one minute and then negatively stained with saturated uranyl acetate for another one minute.
# [4] = biological target: T4, human IAPP (Homo sapiens, UniProt P10997); test: Fluorescence detected thioflavin-T assay of the time course of amyloid formation; details: pH 7.4, 25° C.
# T4 construct: Mature, fully processed, Amylin is 37 residues in length, contains a disulfide bond between residues 2 and 7; made in house; host or cells: chemical solid-phase peptide synthesis (Fmoc), no expression host
# T4 sequence (P10997 34-70 limits assumed): T1 sequence (P10997 34-70 limits assumed)
# Description: Peptides were first dissolved in 100% hexafluoroisopropanol (HFIP) at a concentration 1.6 mM and then filtered to remove any preformed amyloid aggregates. For thioflavin-T fluorescence assays, aliquots were lyophilized and redissolved in pH 7.4, 20 mM Tris-HCl buffer at the desired concentration. Aspirin and Ketoprofen were prepared in 100% dimethyl sulfoxide (DMSO).
# Solutions were prepared by adding pH 7.4, 20 mM Tris buffer and thioflavin-T to lyophilized dry peptides for a final peptide concentration of […]. For the studies of Aspirin and Ketoprofen, 0.25% DMSO was present in the solution. Measurements were made at 25° C. using a Beckman Coulter DTX880 plate reader without stirring. An excitation filter of 430 nm and an emission filter of 485 nm were used. To test disaggregate activity of Aspirin, peptide was first incubated in low-binding 96-wells plate and monitored by plate reader to ensure the formation of amyloid fibrils.
# A mixture of flurbiprofen (1-20 parts) and human IAPP (1 part) was monitored by fluorescence detected thioflavin-T assays. The assays monitored the time course of amyloid formation (amount vs time) in the presence and absence of flurbiprofen.
# A mixture of OH-flurbiprofen and human IAPP were monitored by fluorescence detected thioflavin-T assays. Three different concentrations (1:1 ratio, 1:10 ratio and 1:20 ratio of IAPP to OH-flurbiprofen) were tested against human IAPP without any added OH-flurbiprofen. The assays monitored the time course of amyloid formation (amount vs time) in the presence and absence of a flurbiprofen derivative.
# Three different mixtures of NSAIDs (20 parts) and human IAPP (1 parts) were compared to each other and human IAPP alone by fluorescence detected thioflavin-T assays. The assays monitored the time course of amyloid formation (amount vs time) in the presence and absence of aspirin, naproxen and flurbiprofen.
smiles,measurement,setting,value
CC(=O)Oc1ccccc1C(=O)O [Aspirin],disaggregation of pre-formed amylin amyloid fibrils,[1],unable to disassemble pre-formed amylin amyloid; also recorded: does not disaggregate pre-formed human amylin amyloid fibrils
same,disaggregation of pre-formed amylin amyloid fibrils,[1]; listed as aspirin,does not disaggregate amylin amyloid; also recorded: no effect on the thioflavine-T signal
same,aggregation curves by right angle light scattering,[2],does not inhibit amyloid formation by human amylin
same,amyloid fibrils by TEM in presence of NSAID,[3],no changes in amyloid formation
same,amyloid fibrils by TEM in presence of NSAID,[3]; listed as aspirin,Extensive matts of fibrils; also recorded: does not inhibit IAPP amyloid formation
same,inhibition of amyloid formation by human IAPP (amylin),[4]; 20 to 1 ratio of NSAID to human IAPP,do not inhibit amylin amyloid formation; also recorded: no inhibition of amyloid; also recorded: does not inhibit amyloid formation by human amylin
same,final thioflavin-T intensity,"[4]; amylin 16 μM, aspirin up to 20-fold excess, 0.25% DMSO",no detectable effect on the final thioflavin-T intensity
same,rate of amyloid formation as judged by T50,"[4]; amylin 16 μM, aspirin up to a 20-fold excess",no detectable effect on the rate of amyloid formation
